For one molecule, Tm results are on record in publication PMC10218862 (2023).

This assay concerns Tel22 (DNA, G4) AGGGTTAGGGTTAGGGTTAGGG
Description: CD melting, SVD global fit. The settings on record: 150 mM KCl; 50 mM phosphate, 0.3 mM EDTA, pH 7; 60 μM ligand, 30 μM DNA; not irradiated; 3–4.

For `C[n+]1ccc(-c2c3nc(c(-c4cc[n+](C)cc4)c4ccc([nH]4)c(-c4cc[n+](C)cc4)c4nc(c(-c5cc[n+](C)cc5)c5ccc2[nH]5)C=C4)C=C3)cc1`, the Tm is recorded as ~ 3 degrees.
